How the values were obtained:
[1] = Pharmacokinetics in SD rats by oral gavage; type: in vivo; details: for Pharmacokinetic properties compared with Atogepant: conclusion in words; for AUC / bioavailability / half-life / Cmax: male, Sprague-Dawley, rat, plasma, PO 10 mg/kg; for bioavailability: read-out: Bioavailability F; for half-life: read-out: Half-life period T½ (converted); for Cmax: read-out: Plasma concentration Cmax
Description: SD rats were used as test animals, and the LC/MS/MS method was used to determine the drug concentration in plasma at different times after gavage and intravenous […] of the compound of the application, so as to study the pharmacokinetic characteristics of the compound of the application in rats.
Positive control compound Atogepant, Example 1A and Example 3A of the present application;
Eighteen healthy adult Sprague Dawley (SD) male rats were purchased from Joinn (Suzhou) New Drug Research Center Co., Ltd.
An appropriate amount of the compound to be tested was weighed, added with 100% polyethylene glycol 400, and vortexed to dissolve the compound. After the preparation was completed, it would be a colorless and transparent solution with a concentration of 2 mg/mL.
An appropriate amount of the compound to be tested was weighed, added 90% polyethylene glycol 400 and 10% ethanol, and vortexed to dissolve the compound. After the preparation was completed, it would be a colorless and transparent solution with a concentration of 1 mg/mL.
Eighteen healthy adult SD male rats were fasted overnight and fed 4 hours after drug administration.
About 0.2 mL of blood was collected from the jugular vein before administration and 0.083 hours, 0.25 hours, 0.5 hours, 1 hour, 2 hours, 4 hours, 6 hours, 8 hours, 10 hours and 24 hours after administration, and anticoagulated with EDTA-K2. After blood samples were collected, they were placed in labeled ice-water bath centrifuge tubes and rapidly centrifuged to separate plasma. The centrifugation conditions were: 4000 rpm, 10 minutes, 4° C. The collected plasma was stored at below −40° C. for testing. The content of the tested compounds in the plasma of SD rats after gavage and intravenous administration of different compounds was determined by LC-MS/MS.

[2] = test system: Cynomolgus monkey blood flow; assay: Capsaicin-induced Cynomolgus monkey blood flow model; type: in vivo, Cynomolgus monkeys; details: N = 3
Protocol: In the capsaicin-induced Cynomolgus monkey blood flow model, the inhibitory effect of the compounds of the present application on cynomolgus monkey blood flow was evaluated.
In Example 1A and Example 3A, 100% polyethylene glycol 400 was used as the vehicle.
Experimental animals: male cynomolgus monkeys, with a body weight range of 3.2 kg to 5.80 kg during the administration period, purchased from Guangxi Xiongsen Primate Experimental Animal Breeding and Development Co., Ltd., production license: SCXK (Gui) 2016-0003; experimental animal quality certificate number: NO. 0002942.
Housing conditions: animals were kept in stainless steel cages by a single cage feeding method. The cage specifications are length×width×height=1 m×1 m×0.8 m. Before anesthesia with zoletil, the animals need to be fasted (but not water). The rest of the time, the animals were fed once in the morning and afternoon, about 100 g each time for one animal, supplemented with fresh fruits. The temperature of the animal room was set at 18-26° C., the humidity was 40-70%, and the lighting was alternating between light and dark for 12 hours.
After adaptive feeding, 10 cynomolgus monkeys were randomly selected, and the basal values were recorded using a moorFLPI-2 laser speckle blood flowmeter before capsaicin stimulation. After capsaicin stimulation, blood flow was tested again, and animals with an area under the time-blood flow rate curve (AUC)≥1000 (min·%) and small individual differences were selected to enter this experiment.
The blank vehicle control group was given 100% polyethylene glycol 400, and the drug administration group was given high and low doses of Example 1A and Example 3A (dissolved in 100% polyethylene glycol 400), respectively.
Note: Bolus is a large-dose push injection; Infusion is a small-dose continuous infusion.
Blood flow detection: all animals were given capsaicin once on the day of administration, and blood flow was detected at 0 min (before capsaicin administration), 5 min, 10 min, 15 min, 20 min and 30 min after capsaicin administration to monitor blood flow changes during this period. After the experiment ended that day, washout was carried out at intervals of 7-10 days, during which the experimental animals were rotated in turn. This type of experiment was repeated three times to obtain the average value of each group of data.
The blood flow change rate, AUC (area under the blood flow change rate-time curve) and blood flow inhibition rate were calculated using Excel.

[3] = 5 min after capsaicin, 0.3 μg/kg + 0.03 μg/kg/min
[4] = 5 min after capsaicin, 1 μg/kg + 0.1 μg/kg/min
[5] = 10 min after capsaicin, 0.3 μg/kg + 0.03 μg/kg/min
[6] = 10 min after capsaicin, 1 μg/kg + 0.1 μg/kg/min
[7] = 15 min after capsaicin, 0.3 μg/kg + 0.03 μg/kg/min
[8] = 15 min after capsaicin, 1 μg/kg + 0.1 μg/kg/min
[9] = 20 min after capsaicin, 0.3 μg/kg + 0.03 μg/kg/min
[10] = 20 min after capsaicin, 1 μg/kg + 0.1 μg/kg/min
[11] = 30 min after capsaicin, 0.3 μg/kg + 0.03 μg/kg/min
[12] = 30 min after capsaicin, 1 μg/kg + 0.1 μg/kg/min

Pharmacokinetic properties compared with Atogepant [1]	AUC [1]	bioavailability [1]	half-life [1]	Cmax [1]	Structure (SMILES)	AUC (area under the blood flow change rate-time curve) ([2]; 0.3 μg/kg + 0.03 μg/kg/min)	AUC (area under the blood flow change rate-time curve) ([2]; 1 μg/kg + 0.1 μg/kg/min)	Blood flow change rate [2, 3]	Blood flow change rate [2, 4]	Blood flow change rate [2, 5]	Blood flow change rate [2, 6]	Blood flow change rate [2, 7]	Blood flow change rate [2, 8]	Blood flow change rate [2, 9]	Blood flow change rate [2, 10]	Blood flow change rate [2, 11]	Blood flow change rate [2, 12]
good pharmacokinetic properties	23200 ± 7950 ng·h/mL	38.6 ± 13.3%	2.93 ± 0.6 h	3850 ± 1460 ng/mL	C[C@@H]1[C@H](c2c(F)ccc(F)c2F)C[C@H](NC(=O)c2cc3c(o2)CC[C@]2(C3)C(=O)Nc3ncccc32)C(=O)N1CC(F)(F)F [Example 1A, (R)—N-((3S,5S,6R)-6-methyl-2-oxo-1-(2,2,2-trifluoroethyl)-5-(2,3,6-trifluorophenyl)piperidin-3-yl)-2′-oxo-1′,2′,6,7-tetrahydro-4H-spiro[benzofuran-5,3′-pyrrolo[2,3-b]pyridine]-2-carboxamide]	454 %-min	198 %-min	26%	12%	37%	21%	26%	5%	12%	9%	−4%	−6%
–	2440 ± 1400 ng·h/mL	12.5 ± 7.3%	1.6 ± 0.3 h	560 ± 233 ng/mL	C[C@@H]1[C@H](c2c(F)ccc(F)c2F)C[C@H](NC(=O)c2cnc3c(c2)C[C@@]2(C3)C(=O)Nc3ncccc32)C(=O)N1CC(F)(F)F [Atogepant, reference compound]	–	–	–	–	–	–	–	–	–	–	–	–
good pharmacokinetic properties	42500 ± 8520 ng·h/mL	90.5 ± 19.1%	1.62 ± 0.2 h	10500 ± 3730 ng/mL	C[C@@H]1[C@H](c2c(F)ccc(F)c2F)C[C@H](NC(=O)c2cc3c(s2)C[C@]2(C3)C(=O)Nc3ncccc32)C(=O)N1CC(F)(F)F [Example 3A, (S)—N-((3S,5S,6R)-6-methyl-2-oxo-1-(2,2,2-trifluoroethyl)-5-(2,3,6-trifluorophenyl)piperidin-3-yl)-2′-oxo-1′,2′,4,6-tetrahydrospiro[cyclopenta[b]thiophene-5,3′-pyrrolo[2,3-b]pyridine]-2-carboxamide]	1481 %-min	395 %-min	69%	27%	71%	35%	69%	25%	48%	3%	49%	1%
